Ends that are not written are not given here.
Key:
[1] = target: T1, human GIP receptor (Homo sapiens, UniProt P48546); test: cAMP accumulation assay (HitHunter cAMP XS) in transiently transfected COS-7 cells expressing the human GIP receptor; type: cell-based; conditions: for Emax at 10 µM: COS-7, read-out: Emax (10 μM), GIP receptor; for fold (fold change of native GIP), GIP receptor: EC50 relative to native GIP; for EC50: logEC50, GIP receptor, log value, cAMP, COS-7
T1 construct: host or cells: COS-7 (transient, calcium phosphate; pCMV-Script vector)
T1 sequence (P48546 22-466): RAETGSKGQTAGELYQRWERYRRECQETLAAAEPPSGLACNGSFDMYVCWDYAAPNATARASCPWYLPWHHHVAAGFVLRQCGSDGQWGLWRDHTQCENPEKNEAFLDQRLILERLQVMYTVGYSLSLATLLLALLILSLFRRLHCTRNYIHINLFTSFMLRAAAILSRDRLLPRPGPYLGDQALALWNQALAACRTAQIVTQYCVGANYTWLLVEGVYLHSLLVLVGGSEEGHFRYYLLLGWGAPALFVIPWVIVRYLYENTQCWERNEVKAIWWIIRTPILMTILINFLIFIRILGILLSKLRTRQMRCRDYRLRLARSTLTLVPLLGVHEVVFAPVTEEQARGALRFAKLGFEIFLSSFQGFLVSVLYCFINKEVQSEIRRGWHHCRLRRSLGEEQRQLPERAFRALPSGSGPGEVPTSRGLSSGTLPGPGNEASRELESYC
Method: (§1) The day after, the cells were washed twice with Hepes buffered saline (HBS) buffer and incubated with HBS and 1 mM 3-isobutyl-1-methylxanthine (IBMX) for 30 min at 37° C. Ligands were added and incubated for 30 min at 37° C. The HitHunter™ cAMP XS assay (DiscoveRx) was carried out according to the manufacturer's instructions.

[2] = target: T2, human GLP-2 receptor (Homo sapiens, UniProt O95838); test: cAMP accumulation assay (HitHunter cAMP XS) in transiently transfected COS-7 cells expressing the human GLP-2 receptor; type: cell-based; conditions: for Emax at 10 µM: COS-7, read-out: Emax (10 μM), GLP-2 receptor; for fold (fold change of native GLP-2), GLP-2 receptor: EC50 relative to native GLP-2; for EC50: cAMP, COS-7
T2 construct: host or cells: COS-7 (transient, calcium phosphate; pCMV-Script vector)
T2 sequence (O95838 1-553): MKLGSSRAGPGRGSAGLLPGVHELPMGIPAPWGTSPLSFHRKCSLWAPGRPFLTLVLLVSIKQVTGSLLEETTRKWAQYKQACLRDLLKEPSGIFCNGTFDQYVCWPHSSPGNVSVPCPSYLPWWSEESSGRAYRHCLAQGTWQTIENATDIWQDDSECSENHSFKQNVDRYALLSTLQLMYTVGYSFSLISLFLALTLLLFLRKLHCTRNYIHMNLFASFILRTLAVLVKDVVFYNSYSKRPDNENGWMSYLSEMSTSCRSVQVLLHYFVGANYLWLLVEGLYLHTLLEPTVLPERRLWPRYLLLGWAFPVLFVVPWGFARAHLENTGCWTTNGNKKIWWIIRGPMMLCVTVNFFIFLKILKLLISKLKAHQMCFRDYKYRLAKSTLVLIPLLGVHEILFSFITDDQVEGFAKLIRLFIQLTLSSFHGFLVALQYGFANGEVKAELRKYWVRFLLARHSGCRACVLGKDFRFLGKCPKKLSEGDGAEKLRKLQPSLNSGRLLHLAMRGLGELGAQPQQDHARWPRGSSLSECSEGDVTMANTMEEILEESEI
Method: as §1

[3] = logEC50, GLP-2 receptor, Table 2

Row | Compound | Emax at 10 µM [1] [%] | fold (fold change of native GIP), GIP receptor ([1]; Table 2) [fold] | Emax at 10 µM [2] [%] | fold (fold change of native GLP-2), GLP-2 receptor ([2]; Table 2) [fold] | EC50 [2, 3] [nM] | EC50 ([1]; Table 2) [nM] | EC50 ([2]; EC50(nM), GLP-2 receptor, Table 2) [nM] | fold (fold change of native GIP), GIP receptor ([1]; Table 1) [fold] | EC50 ([1]; Table 1) [nM] | fold (fold change of native GLP-2), GLP-2 receptor ([2]; Table 1) [fold] | EC50 ([2]; logEC50, GLP-2 receptor, Table 1) [nM]
1 | CCCCCCCCCCCC(=O)NCCCC[C@H](NC(=O)[C@@H](NC(=O)[C@H](CCC(N)=O)NC(=O)[C@@H](NC(=O)[C@H](CC(C)C)NC(=O)[C@H](Cc1c[nH]c2ccccc12)NC(=O)[C@H](CC(N)=O)NC(=O)[C@@H](NC(=O)[C@H](Cc1ccccc1)NC(=O)[C@H](CC(=O)O)NC(=O)[C@H](CCCNC(=N)N)NC(=O)[C@H](C)NC(=O)[C@H](C)NC(=O)[C@H](CC(C)C)NC(=O)[C@H](CC(N)=O)NC(=O)[C@H](CC(=O)O)NC(=O)[C@H](CC(C)C)NC(=O)[C@@H](NC(=O)[C@@H](NC(=O)[C@H](CO)NC(=O)[C@H](Cc1ccc(O)cc1)NC(=O)[C@H](CC(=O)O)NC(=O)[C@H](CO)NC(=O)[C@@H](NC(=O)[C@H](Cc1ccccc1)NC(=O)[C@@H](NC(=O)CNC(=O)[C@H](CC(=O)O)NC(=O)[C@H](C)NC(=O)[C@@H](N)Cc1c[nH]cn1)[C@@H](C)O)[C@@H](C)CC)[C@@H](C)O)[C@@H](C)CC)[C@@H](C)CC)[C@@H](C)CC)[C@@H](C)O)C(=O)N[C@H](C(=O)N[C@H](C(=O)N[C@@H](CCCCN)C(=O)O)[C@@H](C)O)[C@@H](C)CC [Co-agonist 30] | 100 | 7.1 | 73 | 30 | 36.3 | – | – | – | – | – | –
2 | CCCCCCCCCCCCCCCC(=O)NCCCC[C@H](NC(=O)[C@@H](NC(=O)[C@H](CCC(N)=O)NC(=O)[C@@H](NC(=O)[C@H](CC(C)C)NC(=O)[C@H](Cc1c[nH]c2ccccc12)NC(=O)[C@H](CC(N)=O)NC(=O)[C@@H](NC(=O)[C@H](Cc1ccccc1)NC(=O)[C@H](CC(=O)O)NC(=O)[C@H](CCCNC(=N)N)NC(=O)[C@H](C)NC(=O)[C@H](C)NC(=O)[C@H](CC(C)C)NC(=O)[C@H](CC(N)=O)NC(=O)[C@H](CC(=O)O)NC(=O)[C@H](CC(C)C)NC(=O)[C@@H](NC(=O)[C@@H](NC(=O)[C@H](CO)NC(=O)[C@H](Cc1ccc(O)cc1)NC(=O)[C@H](CC(=O)O)NC(=O)[C@H](CO)NC(=O)[C@@H](NC(=O)[C@H](Cc1ccccc1)NC(=O)[C@@H](NC(=O)CNC(=O)[C@H](CC(=O)O)NC(=O)[C@H](C)NC(=O)[C@@H](N)Cc1c[nH]cn1)[C@@H](C)O)[C@@H](C)CC)[C@@H](C)O)[C@@H](C)CC)[C@@H](C)CC)[C@@H](C)CC)[C@@H](C)O)C(=O)N[C@H](C(=O)N[C@H](C(=O)N[C@@H](CCCCN)C(=O)O)[C@@H](C)O)[C@@H](C)CC [Co-agonist 31] | 91 | 19 | 91 | 89 | – | – | – | – | – | – | –
3 | CCCCCCCCCCCC(=O)NCCCC[C@H](NC(=O)[C@@H](NC(=O)[C@@H](NC(=O)[C@H](CCCCN)NC(=O)[C@@H](NC(=O)[C@H](CCC(N)=O)NC(=O)[C@@H](NC(=O)[C@H](CC(C)C)NC(=O)[C@H](Cc1c[nH]c2ccccc12)NC(=O)[C@H](CC(N)=O)NC(=O)[C@@H](NC(=O)[C@H](Cc1ccccc1)NC(=O)[C@H](CC(=O)O)NC(=O)[C@H](CCCNC(=N)N)NC(=O)[C@H](C)NC(=O)[C@H](C)NC(=O)[C@H](CC(C)C)NC(=O)[C@H](CC(N)=O)NC(=O)[C@H](CC(=O)O)NC(=O)[C@H](CC(C)C)NC(=O)[C@@H](NC(=O)[C@@H](NC(=O)[C@H](CO)NC(=O)[C@H](Cc1ccc(O)cc1)NC(=O)[C@H](CC(=O)O)NC(=O)[C@H](CO)NC(=O)[C@@H](NC(=O)[C@H](Cc1ccccc1)NC(=O)[C@@H](NC(=O)CNC(=O)[C@H](CC(=O)O)NC(=O)[C@H](C)NC(=O)[C@@H](N)Cc1c[nH]cn1)[C@@H](C)O)[C@@H](C)CC)[C@@H](C)O)[C@@H](C)CC)[C@@H](C)CC)[C@@H](C)CC)[C@@H](C)O)[C@@H](C)CC)[C@@H](C)O)C(=O)O [Co-agonist 32] | 100 | 1.7 | 91 | 5.1 | – | 0.155 | 6.2 | – | – | – | –
4 | CCCCCCCCCCCCCCCC(=O)NCCCC[C@H](NC(=O)[C@@H](NC(=O)[C@@H](NC(=O)[C@H](CCCCN)NC(=O)[C@@H](NC(=O)[C@H](CCC(N)=O)NC(=O)[C@@H](NC(=O)[C@H](CC(C)C)NC(=O)[C@H](Cc1c[nH]c2ccccc12)NC(=O)[C@H](CC(N)=O)NC(=O)[C@@H](NC(=O)[C@H](Cc1ccccc1)NC(=O)[C@H](CC(=O)O)NC(=O)[C@H](CCCNC(=N)N)NC(=O)[C@H](C)NC(=O)[C@H](C)NC(=O)[C@H](CC(C)C)NC(=O)[C@H](CC(N)=O)NC(=O)[C@H](CC(=O)O)NC(=O)[C@H](CC(C)C)NC(=O)[C@@H](NC(=O)[C@@H](NC(=O)[C@H](CO)NC(=O)[C@H](Cc1ccc(O)cc1)NC(=O)[C@H](CC(=O)O)NC(=O)[C@H](CO)NC(=O)[C@@H](NC(=O)[C@H](Cc1ccccc1)NC(=O)[C@@H](NC(=O)CNC(=O)[C@H](CC(=O)O)NC(=O)[C@H](C)NC(=O)[C@@H](N)Cc1c[nH]cn1)[C@@H](C)O)[C@@H](C)CC)[C@@H](C)O)[C@@H](C)CC)[C@@H](C)CC)[C@@H](C)CC)[C@@H](C)O)[C@@H](C)CC)[C@@H](C)O)C(=O)O [Co-agonist 33] | 100 | 3.6 | 82 | 11 | 12.9 | 0.316 | – | – | – | – | –
5 | CCCCCCCCCCCC(=O)NCCCC[C@H](NC(=O)CNC(=O)[C@H](CCCCN)NC(=O)[C@@H](NC(=O)[C@H](CCC(N)=O)NC(=O)[C@@H](NC(=O)[C@H](CC(C)C)NC(=O)[C@H](Cc1c[nH]c2ccccc12)NC(=O)[C@H](CC(N)=O)NC(=O)[C@@H](NC(=O)[C@H](Cc1ccccc1)NC(=O)[C@H](CC(=O)O)NC(=O)[C@H](CCCNC(=N)N)NC(=O)[C@H](C)NC(=O)[C@H](C)NC(=O)[C@H](CC(C)C)NC(=O)[C@H](CC(N)=O)NC(=O)[C@H](CC(=O)O)NC(=O)[C@H](CC(C)C)NC(=O)[C@@H](NC(=O)[C@@H](NC(=O)[C@H](CO)NC(=O)[C@H](Cc1ccc(O)cc1)NC(=O)[C@H](CC(=O)O)NC(=O)[C@H](CO)NC(=O)[C@@H](NC(=O)[C@H](Cc1ccccc1)NC(=O)[C@@H](NC(=O)CNC(=O)[C@H](CC(=O)O)NC(=O)[C@H](C)NC(=O)[C@@H](N)Cc1c[nH]cn1)[C@@H](C)O)[C@@H](C)CC)[C@@H](C)O)[C@@H](C)CC)[C@@H](C)CC)[C@@H](C)CC)[C@@H](C)O)C(=O)N[C@@H](CCCCN)C(=O)O [Co-agonist 35] | 99 | 5.4 | 68 | 1.9 | 2.34 | – | – | – | – | – | –
6 | CCCCCCCCCCCCCCCC(=O)NCCCC[C@H](NC(=O)CNC(=O)[C@H](CCCCN)NC(=O)[C@@H](NC(=O)[C@H](CCC(N)=O)NC(=O)[C@@H](NC(=O)[C@H](CC(C)C)NC(=O)[C@H](Cc1c[nH]c2ccccc12)NC(=O)[C@H](CC(N)=O)NC(=O)[C@@H](NC(=O)[C@H](Cc1ccccc1)NC(=O)[C@H](CC(=O)O)NC(=O)[C@H](CCCNC(=N)N)NC(=O)[C@H](C)NC(=O)[C@H](C)NC(=O)[C@H](CC(C)C)NC(=O)[C@H](CC(N)=O)NC(=O)[C@H](CC(=O)O)NC(=O)[C@H](CC(C)C)NC(=O)[C@@H](NC(=O)[C@@H](NC(=O)[C@H](CO)NC(=O)[C@H](Cc1ccc(O)cc1)NC(=O)[C@H](CC(=O)O)NC(=O)[C@H](CO)NC(=O)[C@@H](NC(=O)[C@H](Cc1ccccc1)NC(=O)[C@@H](NC(=O)CNC(=O)[C@H](CC(=O)O)NC(=O)[C@H](C)NC(=O)[C@@H](N)Cc1c[nH]cn1)[C@@H](C)O)[C@@H](C)CC)[C@@H](C)O)[C@@H](C)CC)[C@@H](C)CC)[C@@H](C)CC)[C@@H](C)O)C(=O)N[C@@H](CCCCN)C(=O)O [Co-agonist 36] | 100 | 8.9 | 71 | 17 | 20 | – | – | – | – | – | –
7 | HADGTFIDDYSTILDNLAARDFINWLIQTKITD [Co-agonist 14] | 94 | – | 90 | – | – | – | – | 27 | 2.34 | 9.2 | 10.7
